Laboratory results: patent US20070128217A1 (priority 2003, published 2007)

Experiments:
[1] = test system: antibodies in sera from SARS patients (sera 1a, 1b, 2, 6, 37, 62, London, SARS-yellow, SARS-green); type: binding, human; parameters: Binding of serum 6 to linear peptides of protein X1 of SARS-CoV Urbani / Binding of serum 37 to linear peptides of protein X1 of SARS-CoV Urbani / Binding of serum 6 to looped/cyclic peptide (PEPSCAN-ELISA) / Binding of serum 37 to looped/cyclic peptide (PEPSCAN-ELISA) / Binding of serum 37 to looped/cyclic peptides of protein X1 of SARS-CoV Urbani / Binding of serum 6 to linear peptides of protein X2 / Binding of serum 37 to linear peptides of protein X2 / Binding of serum 37 to looped/cyclic peptides of protein X2 of SARS-CoV Urbani / Binding of serum 6 to linear peptides of protein M of SARS-CoV Urbani / Binding of serum 37 to linear peptides of protein M of SARS-CoV Urbani / Binding of serum 6 to looped/cyclic peptides of protein M of SARS-CoV Urbani / Binding of serum 37 to looped/cyclic peptides of protein M of SARS-CoV Urbani / Binding of serum 6 to linear peptides of protein X3 of SARS-CoV Urbani / Binding of serum 37 to linear peptides of protein X3 of SARS-CoV Urbani / Binding of serum 37 to looped/cyclic peptides of protein X3 of SARS-CoV Urbani / Binding of serum 6 to linear peptides of protein X4 of SARS-CoV Urbani / Binding of serum 37 to linear peptides of protein X4 of SARS-CoV Urbani / Binding of serum 37 to looped/cyclic peptides of protein X4 of SARS-CoV Urbani / Binding of serum 6 to linear peptides of protein X5 of SARS-CoV Urbani / Binding of serum 37 to linear peptides of protein X5 of SARS-CoV Urbani / Binding of serum 37 to looped/cyclic peptides of protein X5 of SARS-CoV Urbani / Binding of serum 6 to linear peptides of protein N of SARS-CoV Urbani / Binding of serum 37 to linear peptides of protein N of SARS-CoV Urbani / Binding of serum 6 to linear peptide (PEPSCAN-ELISA) / Binding of serum 1a to looped/cyclic peptides of protein N of SARS-CoV Urbani / Binding of serum 1b to looped/cyclic peptides of protein N of SARS-CoV Urbani / Binding of serum 2 to looped/cyclic peptides of protein N of SARS-CoV Urbani / Binding of serum 6 to looped/cyclic peptides of protein N of SARS-CoV Urbani / Binding of serum 37 to looped/cyclic peptides of protein N of SARS-CoV Urbani / Binding of serum 62 to looped/cyclic peptides of protein N of SARS-CoV Urbani / Binding of serum London to looped/cyclic peptides of protein N of SARS-CoV Urbani / Binding of serum SARS-green to looped/cyclic peptides of protein N of SARS-CoV Urbani: unit not given here
[2] = test system: control sera (pooled serum of ten healthy LUMC hospital workers; commercial negative donor pooled serum from the Dutch bloodbank); type: binding, human; parameters: Binding of Control serum LUMC to linear peptides / Binding of Control serum Blood-bank to linear peptides / Binding of Control serum LUMC to looped peptides / Binding of Control Serum Blood-Bank to Looped peptides / Binding of Control serum LUMC to linear peptides of the protein M of SARS-CoV Urbani / Binding of Control serum Blood-bank to linear peptides of the protein M of SARS-CoV Urbani / Binding of Control serum LUMC to looped peptides of the protein M of SARS-CoV Urbani / Binding of Control Serum Blood-Bank to Looped peptides of the protein M of SARS-CoV Urbani: unit not given here
[3] = test system: rabbit serum obtained by immunizing a rabbit with the SARS-CoV strain Frankfurt 1; type: binding; parameters: Binding of a rabbit serum to linear peptides / Binding of a rabbit serum to looped peptides / Rabbit serum linear peptides / Rabbit serum looped peptides / Binding of a rabbit serum to linear peptides of protein N of SARS-CoV Urbani (Rabbit serum linear peptides) / Binding of a rabbit serum to looped/cyclic peptides of protein N of SARS-CoV Urbani (Rabbit serum looped peptides): unit not given here
[4] = test system: recombinant human anti-SARS-CoV antibody 03-018; type: binding; parameters: Binding of antibody 03-018 to linear peptides of the N protein of SARS-CoV Urbani / Binding of antibody 03-018 to looped/cyclic peptides of the N protein of SARS-CoV Urbani: unit not given here

| Sequence | Binding of serum 1a to linear peptide (PEPSCAN-ELISA) [1] | Binding of serum 1a to looped/cyclic peptides of protein N of SARS-CoV Urbani [1] | Binding of serum 1b to linear peptide (PEPSCAN-ELISA) [1] | Binding of serum 1b to looped/cyclic peptides of protein N of SARS-CoV Urbani [1] | Binding of serum 2 to linear peptide (PEPSCAN-ELISA) [1] | Binding of serum 2 to looped/cyclic peptides of protein N of SARS-CoV Urbani [1] | Binding of serum 6 to looped/cyclic peptides of protein N of SARS-CoV Urbani [1] | Binding of serum 37 to looped/cyclic peptides of protein N of SARS-CoV Urbani [1] | Binding of serum 62 to looped/cyclic peptides of protein N of SARS-CoV Urbani [1] | Binding of serum London to looped/cyclic peptides of protein N of SARS-CoV Urbani [1] | Binding of serum SARS-green to looped/cyclic peptides of protein N of SARS-CoV Urbani [1] | Binding of serum SARS-yellow to looped/cyclic peptides of protein N of SARS-CoV Urbani [1] | Binding of Control Serum Blood-Bank to Looped peptides [2] | Binding of Control serum Blood-bank to linear peptides [2] | Binding of Control serum LUMC to linear peptides [2] | Binding of Control serum LUMC to looped peptides [2] | Binding of a rabbit serum to linear peptides of protein N of SARS-CoV Urbani (Rabbit serum linear peptides) [3] | Binding of a rabbit serum to looped/cyclic peptides of protein N of SARS-CoV Urbani (Rabbit serum looped peptides) [3] | Binding of antibody 03-018 to linear peptides of the N protein of SARS-CoV Urbani [4] | Binding of antibody 03-018 to looped/cyclic peptides of the N protein of SARS-CoV Urbani [4] | further results |
| --- | --- | --- | --- | --- | --- | --- | --- | --- | --- | --- | --- | --- | --- | --- | --- | --- | --- | --- | --- | --- | --- |
| LNQLESKVSGKGQQQ | 0.3 | 0.4 | 0.1 | 0.3 | 0.3 | 0.6 | 0.4 | 0.6 | 0.6 | 0.5 | 0.5 | 0.8 | 0.7 | 0.8 | 0.7 | 0.7 | 0.2 | 0.4 | 0.1 | 0.3 | Binding of serum 6 to linear peptide (PEPSCAN-ELISA) [1]: 0.2; Binding of serum 37 to linear peptide (PEPSCAN-ELISA) [1]: 0.7; Binding of serum 62 to linear peptide (PEPSCAN-ELISA) [1]: 0.9; Binding of serum London to linear peptide (PEPSCAN-ELISA) [1]: 0.6; Binding of serum SARS-green to linear peptide (PEPSCAN-ELISA) [1]: 0.4; Binding of serum SARS-yellow to linear peptide (PEPSCAN-ELISA) [1]: 0.7 |
| LNTPKDHIGTRNPNN | – | 0.4 | – | 0.3 | – | 0.4 | 0.3 | 0.6 | 0.5 | 0.5 | 0.4 | 0.4 | 0.5 | 0.8 | 0.6 | 0.6 | 0.2 | 0.0 | 0.1 | 0.2 | Binding of serum 1a to linear peptides of protein N of SARS-CoV Urbani [1]: 0.2; Binding of serum 1b to linear peptides of protein N of SARS-CoV Urbani [1]: 0.1; Binding of serum 2 to linear peptides of protein N of SARS-CoV Urbani [1]: 0.3; Binding of serum 6 to linear peptides of protein N of SARS-CoV Urbani [1]: 0.2; Binding of serum 37 to linear peptides of protein N of SARS-CoV Urbani [1]: 0.7; Binding of serum 62 to linear peptides of protein N of SARS-CoV Urbani [1]: 0.6; Binding of serum London to linear peptides of protein N of SARS-CoV Urbani [1]: 0.5; Binding of serum SARS-green to linear peptides of protein N of SARS-CoV Urbani [1]: 0.2; Binding of serum SARS-yellow to linear peptides of protein N of SARS-CoV Urbani [1]: 0.6 |
| LPAADMDDFSRQLQN | – | 0.3 | – | 0.2 | – | 0.5 | 0.4 | 0.6 | 0.4 | 0.3 | 0.5 | 0.6 | – | – | – | – | 0.2 | 0.2 | 0.1 | 0.2 | Binding of serum 1a to linear peptides of protein N of SARS-CoV Urbani [1]: 0.2; Binding of serum 1b to linear peptides of protein N of SARS-CoV Urbani [1]: 0.2; Binding of serum 2 to linear peptides of protein N of SARS-CoV Urbani [1]: 0.4; Binding of serum 6 to linear peptides of protein N of SARS-CoV Urbani [1]: 0.3; Binding of serum 37 to linear peptides of protein N of SARS-CoV Urbani [1]: 0.7; Binding of serum 62 to linear peptides of protein N of SARS-CoV Urbani [1]: 0.6; Binding of serum London to linear peptides of protein N of SARS-CoV Urbani [1]: 0.5; Binding of serum SARS-green to linear peptides of protein N of SARS-CoV Urbani [1]: 0.2; Binding of serum SARS-yellow to linear peptides of protein N of SARS-CoV Urbani [1]: 0.6; Control Serum Blood-Bank Looped peptides [2]: 0.4; Control serum Blood-bank linear peptides [2]: 0.7; Control serum LUMC linear peptides [2]: 0.7; Control serum LUMC looped peptides [2]: 0.4 |
| LPKGFYAEGSRGGSQ | 0.2 | 0.3 | 0.1 | 0.2 | 0.2 | 0.3 | 0.2 | 0.5 | 0.4 | 0.4 | 0.3 | 0.2 | 0.6 | 0.6 | 0.6 | 0.5 | 0.1 | 0.1 | 0.1 | 0.2 | Binding of serum 6 to linear peptide (PEPSCAN-ELISA) [1]: 0.1; Binding of serum 37 to linear peptide (PEPSCAN-ELISA) [1]: 0.6; Binding of serum 62 to linear peptide (PEPSCAN-ELISA) [1]: 0.6; Binding of serum London to linear peptide (PEPSCAN-ELISA) [1]: 0.4; Binding of serum SARS-green to linear peptide (PEPSCAN-ELISA) [1]: 0.2; Binding of serum SARS-yellow to linear peptide (PEPSCAN-ELISA) [1]: 0.5 |
